Marks after values point to notes of the source that are not given here.
Assays:
ST3Gal-II [1] = biological target: T1, ST3Gal-II (Rattus norvegicus, UniProt Q11205); test: Reverse sialylation: transfer of [9-3H]NeuAc from sialylated donor to nucleotide phosphates (WGA-agarose); format: biochemical; details: for Incorporation of [9-3H]NeuAc expressed as percent of the CPM incorporated into 5′-CMP: nucleotide phosphate 1 mM as acceptor, donor [1]
T1 construct: purchased Calbiochem
T1 sequence (Q11205 1-350): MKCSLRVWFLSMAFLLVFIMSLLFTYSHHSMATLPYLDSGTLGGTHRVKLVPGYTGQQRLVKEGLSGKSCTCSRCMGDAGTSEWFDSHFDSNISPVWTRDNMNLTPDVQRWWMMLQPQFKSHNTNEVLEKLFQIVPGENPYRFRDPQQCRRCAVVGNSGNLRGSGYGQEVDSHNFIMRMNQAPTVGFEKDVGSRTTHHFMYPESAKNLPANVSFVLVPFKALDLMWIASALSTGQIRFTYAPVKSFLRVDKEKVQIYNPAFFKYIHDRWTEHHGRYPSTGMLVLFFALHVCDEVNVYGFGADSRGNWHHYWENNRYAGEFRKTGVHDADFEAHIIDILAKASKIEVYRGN
Description: FIG. 1. Nucleotide phosphates as acceptors of radioactivity from [9-^3H]NeuAcα2,3Galβ,13 (GlcNAcβ1,6)GalNAcα-O—Al (Al=Allyl) [[9-^3H] [1]] in the presence of ST3Gal-II (scheme-I). Reaction mixtures (RM) with the following composition were incubated at 37° C. for 21 hours in 100 mM NaCa Codylate buffer, pH6.0: i) RM containing 150 μM (0.4 μCi) [[9-^3H] [1]] (donor) along with 0.8 mU ST3Gal-II but no 5″-CMP; and, ii) RM containing [[9-^3H] [1]] and 1.0 mM 5′-CMP, along with ST3Gal-II. Products formed were fractionated on a WGA-agarose column. […] The feasibility of the reverse reaction is well established in literature. Schematic symbols: ♦:sialic acid, ●:Gal, □:GalNAc, ▪:GlcNAc.
All enzymatic sialylation reactions were typically carried out in 100 mM NaCa Codylate buffer pH6.0 in the presence of enzyme, synthetic acceptor (at 7.5 mM or as indicated in each experiment) and 0.2 μCi CMP-[9-^3H]NeuAc (NEN-Dupont, 29 mCi/μmol). The concentration of total CMP-NeuAc was adjusted in individual reactions by supplementing with additional cold CMP-NeuAc. Reaction volume was 20 μl. Products formed were separated using four different chromatography procedures (below). In all cases, the radioactive content of isolated products was determined by using 3a70 scintillation cocktail (Research Products International, Mount Prospect, Ill.), and a Beckman LS6500 scintillation counter.
a) Biogel P2 chromatography: A Biogel P2 column (Fine Mesh; 1.0×116.0 cm) was used with 0.1 M pyridine acetate (pH5.4) as the eluent at room temperature. […] Fractions of 1.0 ml were collected. The bound material was then eluted with 0.5M GlcNAc or 0.2M Gal in the same buffer. […] Calculation of equilibrium constant, Keq: Equilibrium constant was calculated for selected reversible bimolecular reactions that are denoted by:
Cloned and purified rat sialyltransferase α2,3(O)ST (ST3Gal-II) is used in many experiments presented in this manuscript. […] In order to determine if the sialylation reaction is reversible (FIG. 1), [9-^3H]NeuAcα2,3Galβ,13(GlcNAcβ1,6)GalNAcα-O—Al (Al=Allyl) [9-^3H[1]] was prepared using ST3Gal-II in the presence of CMP-[9-^3H]NeuAc and the trisaccharide acceptor Galβ1,3(GlcNAcβ1,6)GalNAcα-O—Al, and the radiolabeled product was isolated using Biogel P2 chromatography. […] Two different reaction mixtures were then prepared with: i) [9-^3H[1]] and ST3Gal-II but without 5″-CMP; and ii) [9-^3H[1]] and 5″-CMP along with ST3Gal-II.

ST3Gal-II [2] = biological target: T1, ST3Gal-II; test: Serial transfer of sialic acid from donor via 5′-CMP to acceptors (scheme-II); format: biochemical; details: for Incorporation of [9-3H]NeuAc from donor [3], percent of the CPM incorporated into [5]: 150 μM donor [3]
Description: FIG. 3. Serial transfer of sialic acid using scheme-II was followed at increasing concentrations of acceptor D-Fucβ1,3GalNAcα-O-Bn. The donor used was either: i) 0.15 mM [9-^3H]CMP-NeuAc; or, ii) 0.15 mM [9-^3H]NeuAcα2,3Galβ1,3(4-FGlcNAcβ1,6)GalNAcα-O-Bn [9-^3H [2]] in the presence of 2.0 mM 5′-CMP, or iii) [9-^3H]NeuAcα2,3Galβ1,3(6-O-SulfoGlcNAcβ1,6)GalNAcα-O—Al [[9-^3H] [4]] in the presence of 2.0 mM 5′-CMP. In runs where [9-^3H [2]] was donor since both and [2] bind C18 cartridges, control runs were performed in the absence of D-Fucβ1,3GalNAcα-O-Bn to estimate the amount of [9-^3H]CMP-NeuAc formed under the experimental conditions. 80-85% of the radioactivity was transferred to CMP-NeuAc in these runs. The amount of CMP-NeuAc remaining in runs with was then subtracted from CMP-NeuAc radioactivity in the control run to determine the amount of sialylated. To complement this run, studies were also performed with [[9-^3H] […] In these runs, the amount of sialylated was determined by measuring radioactivity retained in the C18-cartridge. a. Equilibrium constant was 5.55 when CMP-[9-^3H]NeuAc was donor. b. ˜10-fold lower acceptor concentration was required for similar extents of reaction when CMP-[9-^3H]NeuAc was donor, compared to core-2 based donors and [4].
We tested the possibility that CMP-NeuAc formed above may be available for transfer to other acceptors using ST3Gal-II (scheme-II, FIG. 3). For this, three radiolabeled donors were prepared using methods described above: two were based on the mucin Core-2 structure ([[9-^3H] [1]] and [9-^3H]NeuAcα2,3Galβ1,3(6-O-SulfoGlcNAcβ1,6)GalNAcα-O—Al [[9-^3H] [4]]) while the third was based on the Globo glycolipid ([9-^3H] [3]). The transfer of [9-^3H]NeuAc from these sialylated donors to various T-hapten (Galβ1,3GalNAcα) and mucin core2-based glycoside acceptors in the presence of 5′-CMP and ST3Gal-II was assessed (Table III). All three […] of ST3Gal-II ([1], [3] and [4]) allowed formation of CMP-[9-^3H]NeuAc, and a diverse array of products.
The transfer of [9-^3H]NeuAc from [[9-^3H][1]] to D-Fucβ1,3GalNAcα-O-Bn in the presence of 5′-CMP and ST3Gal-II increased linearly in the first two hours and it reached saturation at 4 hours (FIG. 12), and thus the data in Table III (4 hours time point) represent equilibrium conditions. […] Further, diverse sialylated products can be formed using the same synthetic sialylated donor.
In order to compare the efficiency of individual reactions of scheme II, independent runs were performed where either 0.15 mM [9-^3H]CMP-NeuAc, 0.15 mM [9-^3H] [2] or 0.15 mM [9-^3H] [4] was the donor, and [5] was the acceptor (FIG. 3). 2 mM 5′-CMP was added in runs with core-2 donors and [4], and thus reverse sialylation of these molecules was feasible. Keq for transfer of sialic acid from CMP-NeuAc to [5] was 5.55 (FIG. 3a). […] (˜6 mM) or [9-^3H[4]] (˜6 mM). Thus, while the two-step mechanism results in lower conversion than CMP-NeuAc alone, the transfer of NeuAc still takes place at an appreciable rate.

[3] = acceptor 2.5 mM, 1 mM 5′-CMP, 4 hours
[4] = acceptor 2.5 mM, 150 μM donor [4], 1 mM 5′-CMP, 4 hours
[5] = acceptor 2.5 mM, 150 μM donor [1], 1 mM 5′-CMP, 4 hours

| Compound | Incorporation of [9-3H]NeuAc expressed as percent of the CPM incorporated into 5′-CMP (ST3Gal-II [1]) | Incorporation of [9-3H]NeuAc from donor [3], percent of the CPM incorporated into [5] (ST3Gal-II [2]; [3]) | Incorporation of [9-3H]NeuAc from donor [4], percent of the CPM incorporated into [5] (ST3Gal-II [2]; [4]) | Incorporation of [9-3H]NeuAc from donor [1], percent of the CPM incorporated into [5] (ST3Gal-II [2]; [5]) | other results |
| --- | --- | --- | --- | --- | --- |
| Nc1ccn([C@@H]2O[C@H](CO)[C@@H](OP(=O)(O)O)[C@H]2O)c(=O)n1 [3′-CMP] | 2.4% | – | – | – | – |
| Nc1ncnc2c1ncn2[C@@H]1O[C@H](COP(=O)(O)O)[C@@H](O)[C@H]1O [5′-AMP] | 3.0% | – | – | – | – |
| Nc1ccn([C@@H]2O[C@H](COP(=O)(O)OP(=O)(O)OP(=O)(O)O)[C@@H](O)[C@H]2O)c(=O)n1 [5′-CTP, cytidine triphosphate] | 1.6% | – | – | – | – |
| Nc1nc2c(ncn2[C@@H]2O[C@H](COP(=O)(O)O)[C@@H](O)[C@H]2O)c(=O)[nH]1 [5′-GMP] | 2.3% | – | – | – | – |
| Cc1cn([C@H]2C[C@H](O)[C@@H](COP(=O)(O)O)O2)c(=O)[nH]c1=O [5′-TMP] | 1.1% | – | – | – | – |
| CC(=O)N[C@H]1[C@H](OC[C@H]2O[C@H](OCc3ccccc3)[C@H](NC(C)=O)[C@@H](O[C@@H]3O[C@H](C)[C@H](O)[C@H](O)[C@H]3O)[C@H]2O)O[C@H](CO)[C@@H](O)[C@@H]1O [[6], D-Fucβ1,3(GlcNAcβ1,6)GalNAcα-O-Bn] | – | 106.5% | 96.9% | – | – |
| CC(=O)N[C@H]1[C@@H](OCc2ccccc2)O[C@H](CO)[C@H](O)[C@@H]1O[C@@H]1O[C@H](CO)[C@H](F)[C@H](O)[C@H]1O [[7], 4-FGalβ1,3GalNAcα-O-Bn] | – | 4.1% | 33.3% | 60.8% | – |
| COC[C@H]1O[C@H](OCc2ccccc2)[C@H](NC(C)=O)[C@@H](O[C@@H]2O[C@H](CO)[C@H](O)[C@H](O)[C@H]2O)[C@H]1O [[8], Galβ1,3(6-O-Me)GalNAcα-O-Bn] | – | 3.3% | 21.5% | 43.0% | – |
| CO[C@H]1[C@@H](O)[C@@H](CO)O[C@@H](O[C@H]2[C@H](O)[C@@H](NC(C)=O)[C@H](OC[C@H]3O[C@H](OCc4ccccc4)[C@H](NC(C)=O)[C@@H](O[C@@H]4O[C@H](CO)[C@H](O)[C@H](O)[C@H]4O)[C@H]3O)O[C@@H]2CO)[C@@H]1O [[9], 3-O-MeGalβ1,4GlcNAcβ1,6(Galβ1,3)GalNAcα-O-Bn] | – | – | 10.0% | 22.4% | – |
| CO[C@@H]1[C@H](O)[C@@H](O)[C@H](O[C@H]2[C@@H](O)[C@@H](CO)O[C@H](OCc3ccccc3)[C@@H]2NC(C)=O)O[C@@H]1CO [[11], 4-O-MeGalβ1,3GalNAcα-O-Bn] | – | 0.2% | 2.7% | 8.9% | – |
| CC(=O)N[C@H]1[C@H](OCc2ccccc2)O[C@H](CO)[C@@H](O[C@@H]2O[C@H](CO)[C@H](O)[C@H](O)[C@H]2O)[C@@H]1O [[12], Galβ1,4GlcNAcβ-O-Bn] | – | 0.5% | 1.9% | – | – |
| CO[C@@H]1[C@H](O)[C@@H](O)[C@H](O[C@H]2[C@@H](O)[C@@H](CO[C@@H]3O[C@H](CO)[C@@H](O[C@@H]4O[C@H](CO)[C@H](O)[C@H](O)[C@H]4O)[C@H](O)[C@H]3NC(C)=O)O[C@H](OCc3ccccc3)[C@@H]2NC(C)=O)O[C@@H]1CO [[13], Galβ1,4GlcNAcβ1,6(4-O-MeGalβ1,3)GalNAcα-O-Bn] | – | – | 0% | 1.3% | – |
| D-Fucβ1,3GalNAcα-O-Bn [[5]] | – | 100.0% | 100.0% | 100.0% | Incorporation of [9-3H]NeuAc from donor [1] (ST3Gal-II [2]; [5]): (34569 CPM); Incorporation of [9-3H]NeuAc from donor [3] (ST3Gal-II [2]; acceptor 2.5 mM, 150 μM donor [3] of lower specific radioactivity, 1 mM 5′-CMP, 4 hours): (6224 CPM)***; Incorporation of [9-3H]NeuAc from donor [4] (ST3Gal-II [2]; [4]): (97675 CPM); Keq for transfer of sialic acid from CMP-NeuAc to [5] (ST3Gal-II [2]; donor 0.15 mM CMP-[9-3H]NeuAc): 5.55 |
| [9-^3H]NeuAcα2,3Galβ,13 (GlcNAcβ1,6)GalNAcα-O—Al [[1]] | – | – | – | – | transfer of radioactive [9-3H]NeuAc from donor to 5′-CMP (ST3Gal-II [1]; 150 μM donor, 1.0 mM 5′-CMP): > 90% |

— patent US8278072B1, “Method for synthesis of sialylated products using reversible sialylation” (Health Research, Inc., priority 2007, dated 2012)
